From ChEMBL document CHEMBL5614404, “Optimization of potent, broad-spectrum, and specific anti-influenza compounds targeting RNA polymerase PA-PB1 heterodimerization” (Eur J Med Chem, 2024)
Converted amounts (≈) assume the structure as drawn. The source made the active and inactive calls. The rule behind the calls is not given here.

Experiments:
[1] = Cytotoxicity against MDCK cells incubated for 48 hrs by MTT assay; format: toxicity, cell-based, Canis lupus familiaris; conditions: dog
[2] = Inhibition of 6His-tagged Influenza virus PA (239 to 716 residues) extracted from Escherichia coli BL21(DE3)pLysS/GST-tagged Influenza virus PB1 (1 to 25 residues) by ELISA; set-up: species or system unidentified influenza virus
Influenza A virus [3] = test: Antiviral activity against Influenza A virus PR/8/34 infected in MDCK cells incubated for 48 hrs by plaque reduction assay; format: functional, organism-based
[4] = Selectivity index, ratio of CC50 for MDCK cells to EC50 for Influenza A virus PR/8/34 infected in MDCK cells; format: toxicity, cell-based; conditions: dog, read-out: Ratio CC50/EC50
HEK293T [5] = test: Inhibition of heterodimerization of Influenza virus GFP-fused PA/PB1 transfected in HEK293T cells assessed as impaired nuclear import at 0.5 uM incubated for 14 hrs by CLSM analysis; format: cell-based; conditions: unidentified influenza virus
[6] = Cytotoxicity against HEK293T cells incubated for 48 hrs by MTT assay; format: toxicity, cell-based, HEK-293T; conditions: human
[7] = tested on: unidentified influenza virus; test: Thermal stabilization of C-terminal 6His-tagged Influenza virus PA (239 to 716 residues) extracted from Escherichia coli BL21(DE3)pLysS/N-terminal Influenza virus PB1 (1 to 25 residues) assessed as shift in melting temperature by nano-DSF assay
[8] = Binding affinity to RED-NT650-NHS-labeled C-terminal 6His-tagged recombinant Influenza virus PA (239 to 716 residues) extracted from Escherichia coli BL21(DE3)pLysS assessed as dissociation constant by MST assay; set-up: species or system unidentified influenza virus
Influenza A virus [9] = test: Antiviral activity against Influenza A virus PR/8/34 (H1N1) infected in MDCK cells incubated for 48 hrs by plaque reduction assay; format: functional, organism-based
Influenza A virus [10] = test: Antiviral activity against Influenza A virus Wisconsin/67/05 (H3N2) infected in MDCK cells incubated for 48 hrs by plaque reduction assay; format: functional, organism-based
Influenza B virus [11] = test: Antiviral activity against ancestral Influenza B virus Lee/40 infected in MDCK cells incubated for 48 hrs by plaque reduction assay; format: functional, organism-based; conditions: Lee/40, MDCK
Influenza B virus [12] = test: Antiviral activity against Influenza B virus Malaysia/2506/04 infected in MDCK cells incubated for 48 hrs by plaque reduction assay; format: functional, organism-based; conditions: Malaysia/2506/04, MDCK
Dengue virus = test: Antiviral activity against DENV infected in human Huh-7 cells assessed as inhibition of viral replication; format: functional, organism-based
West Nile virus = test: Antiviral activity against WNV infected in human Huh-7 cells assessed as inhibition of viral replication; format: functional, organism-based
SARS-CoV-2 = test: Antiviral activity against SARS CoV-2 infected in human Caco-2 cells assessed as inhibition of viral replication; format: functional, organism-based; conditions: Severe acute respiratory syndrome coronavirus 2
A549 [13] = test: (§1) Antiviral activity against HPIV infected in human A549 cells assessed as inhibition of viral replication; format: functional, cell-based
Huh-7 = test: Cytotoxicity against human Huh-7 cells; format: toxicity, cell-based
Caco-2 = test: Cytotoxicity against human Caco-2 cells; format: toxicity, cell-based
A549 [14] = test: (§2) Cytotoxicity against human A549 cells; format: toxicity, cell-based; conditions: a549
[15] = Thermodynamic solubility in aqueous media incubated for 24 hrs by shake flask method; format: physicochemical; conditions: read-out: Therm_solubility
[16] = Apparent permeability of compound incubated for 5 hrs by PAMPA; format: ADME
[17] = Permeability of compound assessed as membrane retention incubated for 5 hrs by PAMPA; format: ADME
[18] = Metabolic stability in human liver microsomes assessed as unmetabolized compound at 50 uM incubated for 1 hr in presence of NADPH by UV/LC-MS analysis; format: ADME, Microsome; conditions: read-out: Stability
[19] = Metabolic stability in rat plasma at 2 mM measured for 5 to 60 mins by UV/LC-MS analysis; format: ADME, cell-free; conditions: time 5-60 min, read-out: Stability
[20] = Metabolic stability in rat plasma at 2 mM measured after 1440 mins by UV/LC-MS analysis; format: ADME, cell-free; conditions: read-out: Stability
[21] = Binding affinity to C-terminal His-tagged Influenza virus RdRp PA assessed as dissociation constant by ITC analysis; set-up: species or system unidentified influenza virus
[22] = as §1; format: functional, cell-based
[23] = as §2; format: toxicity, cell-based; conditions: A549 cells
[24] = Metabolic stability in rat plasma at 2 mM measured upto 1440 mins by UV/LC-MS analysis; format: ADME, cell-free; conditions: read-out: Stability
Influenza A virus [25] = test: Antiviral activity against Amantadine/Oseltamivir-sensitive Influenza A virus Solomon Islands/03/2006 (H1N1) infected in MDCK cells by plaque reduction assay; format: functional, organism-based
[26] = Inhibition of heterodimerization of C-terminal His-tagged Influenza virus PA (239 to 716 residues)/N-terminal GST-tagged Influenza virus PB1 (1 to 25 residues) incubated overnight by ELISA; set-up: species or system unidentified influenza virus
Influenza B virus [27] = test: Antiviral activity against Influenza B virus Brisbane/60/2008 infected in MDCK cells by plaque reduction assay; format: functional, organism-based; conditions: Brisbane/60/2008, MDCK
[28] = Cytotoxicity against MDCK cells by Neutral red uptake assay; format: toxicity, cell-based, Canis lupus familiaris; conditions: dog
[29] = Inhibition of heterodimerization of C-terminal His-tagged Influenza virus PA (239 to 716 residues)/N-terminal GST-tagged Influenza virus PB1 (1 to 25 residues) by ELISA; set-up: species or system unidentified influenza virus
Influenza A virus [30] = test: Antiviral activity against Influenza A virus WSN/33 (H1N1) clinical isolate infected in MDCK cells expressing ST6Gal by crystal violet staining based plaque reduction assay; format: functional, organism-based
Influenza A virus [31] = test: Antiviral activity against Oseltamivir-sensitive Influenza A virus Denmark/524/2009 (H1N1) clinical isolate infected in MDCK cells expressing ST6Gal by crystal violet staining based plaque reduction assay; format: functional, organism-based
Influenza A virus [32] = test: Antiviral activity against Influenza A virus Switzerland/9715293/2013 (H3N2) clinical isolate infected in MDCK cells expressing ST6Gal by crystal violet staining based plaque reduction assay; format: functional, organism-based
Influenza A virus [33] = test: Antiviral activity against Influenza A virus Texas/04/2009 (H1N1) clinical isolate infected in MDCK cells expressing ST6Gal by crystal violet staining based plaque reduction assay; format: functional, organism-based
Influenza A virus [34] = test: Antiviral activity against Influenza A virus Washington/29/2009 (H1N1) clinical isolate infected in MDCK cells expressing ST6Gal by crystal violet staining based plaque reduction assay; format: functional, organism-based
Influenza B virus [35] = test: Antiviral activity against Influenza B virus Wisconsin/1/2010 clinical isolate infected in MDCK cells expressing ST6Gal by crystal violet staining based plaque reduction assay; format: functional, organism-based; conditions: Wisconsin/1/2010, MDCK
Influenza B virus [36] = test: Antiviral activity against Influenza B virus Memphis/20/1996 clinical isolate infected in MDCK cells expressing ST6Gal by crystal violet staining based plaque reduction assay; format: functional, organism-based; conditions: Memphis/20/1996, MDCK
Influenza B virus [37] = test: Antiviral activity against Influenza B virus Utah/09/2014 clinical isolate infected in MDCK cells expressing ST6Gal by crystal violet staining based plaque reduction assay; format: functional, organism-based; conditions: Utah/09/2014, MDCK
Influenza B virus [38] = test: Antiviral activity against Influenza B virus Phuket/3073/2013 clinical isolate infected in MDCK cells expressing ST6Gal by crystal violet staining based plaque reduction assay; format: functional, organism-based; conditions: Phuket/3073/2013, MDCK
Influenza B virus [39] = test: Antiviral activity against Influenza B virus Brisbane/60/2008 clinical isolate infected in MDCK cells expressing ST6Gal by crystal violet staining based plaque reduction assay; format: functional, organism-based; conditions: Brisbane/60/2008, MDCK
[40] = Cytotoxicity against MDCK cells assessed as reduction in cell viability incubated for 48 hrs by Neutral red uptake assay; format: toxicity, cell-based, Canis lupus familiaris; conditions: dog
HEK293T [41] = test: Inhibition of heterodimerization of Influenza virus GFP-fused PA/PB1 transfected in HEK293T cells assessed as impaired nuclear import at 5 uM incubated for 14 hrs by CLSM analysis; format: cell-based; conditions: unidentified influenza virus
[42] = Influenza A virus, PR/8/34, MDCK, 48 h

## N#Cc1ccc(C(=O)Nc2sc3c(c2C(=O)Nc2ccccc2O)CCCCC3)cc1
[1]
  CC50 at 48 h: > 250000 nM
[2]
  IC50: 19300 nM
Influenza A virus [3]; [42]
  EC50: 380 nM
[4]
  selectivity ratio: > 667
HEK293T [5]
  inhibition: Active
[6]
  CC50 at 48 h: > 50000 nM
[7]
  Activity: Active
[8]
  Kd: 5750 nM
Influenza A virus [9]
  EC50: 380 nM
Influenza A virus [10]
  EC50: 220 nM
Influenza B virus [11]
  EC50: 300 nM
Influenza B virus [12]
  EC50: 350 nM
Dengue virus
  Activity: inactive
West Nile virus
  Activity: inactive
SARS-CoV-2
  Activity: inactive
A549 [13]
  Activity: inactive
Huh-7
  Activity: Non-Toxic
Caco-2
  Activity: Non-Toxic
A549 [14]
  Activity: Non-Toxic
[15]
  solubility thermodynamic at 24 h: 17.6 µM (≈ 7.59 µg/mL)
[16]
  Papp at 5 h: 3.48 ×10⁻⁶ cm/s
[17]
  Activity: 57%
[18]
  remaining at 1 h, 50 µM: 93.3%
[19]
  remaining at 2000 µM: 95%
[20]
  remaining at 24 h, 2000 µM: 81%

## CCc1c(C)nc2nnc(-c3ccccc3Cl)n2c1O
[21]
  Kd: 1320 nM

## O=C(Nc1sc2c(c1C(=O)Nc1ccccc1O)CCCCC2)c1ccc([N+](=O)[O-])cc1O
[1]
  CC50 at 48 h: 224000 nM
[2]
  IC50: 26500 nM
Influenza A virus [3]; [42]
  EC50: 89 nM
[4]
  selectivity ratio: 2520
HEK293T [5]
  inhibition: Active
[6]
  CC50 at 48 h: > 50000 nM
[7]
  Activity: Active
Influenza A virus [9]
  EC50: 89 nM
Influenza A virus [10]
  EC50: 54 nM
Influenza B virus [11]
  EC50: 87 nM
Influenza B virus [12]
  EC50: 88 nM
Dengue virus
  Activity: inactive
West Nile virus
  Activity: inactive
SARS-CoV-2
  Activity: inactive
[22]
  EC50: 21700 nM
Huh-7
  Activity: Non-Toxic
Caco-2
  Activity: Non-Toxic
[23]
  CC50: > 40000 nM
[15]
  solubility thermodynamic at 24 h: 49.8 µM (≈ 23.3 µg/mL)
[16]
  Papp at 5 h: 0.78 ×10⁻⁶ cm/s
[17]
  Activity: 2.5%
[18]
  remaining at 1 h, 50 µM: 93.8%
[24]
  remaining at 24 h, 2000 µM: ~100%

## O=C1C(c2ncc([N+](=O)[O-])s2)CC[C@@H]2CCCC[C@@H]12 (stereo not given in full)
Influenza A virus [25]
  EC50: 930 nM
[26]
  IC50: 18500 nM
Influenza B virus [27]
  EC50: 930 nM
[28]
  CC50: > 300000 nM

## C[C@@H](c1ccccc1)n1nnnc1[C@H](c1ccsc1)N1CCC(n2c(=O)[nH]c3ccccc32)CC1
[29]
  IC50: 7600 nM
Influenza A virus [30]
  EC50: 600 nM
Influenza A virus [31]
  EC50: 600 nM
Influenza A virus [32]
  EC50: 600 nM
Influenza A virus [33]
  EC50: 600 nM
Influenza A virus [34]
  EC50: 600 nM
Influenza B virus [35]
  EC50: 600 nM
Influenza B virus [36]
  EC50: 600 nM
Influenza B virus [37]
  EC50: 600 nM
Influenza B virus [38]
  EC50: 600 nM
Influenza B virus [39]
  EC50: 600 nM
[40]
  CC50 at 48 h: > 300000 nM

## NC(=O)c1ncn([C@@H]2O[C@H](CO)[C@@H](O)[C@H]2O)n1 [RIBAVIRIN]
[1]
  CC50 at 48 h: > 250000 nM
Influenza A virus [3]
  EC50: 8700 nM
[4]
  selectivity ratio: > 29
[6]
  CC50 at 48 h: > 50000 nM
Influenza A virus [9]
  EC50: 7400 nM
Influenza A virus [10]
  EC50: 5800 nM
Influenza B virus [11]
  EC50: 19500 nM
Influenza B virus [12]
  EC50: 10800 nM

## N#Cc1ccc(C(=O)Nc2sc3c(c2C(=O)Nc2ccc(C(F)(F)F)cc2)CCCCC3)cc1
[1]
  CC50 at 48 h: > 250000 nM
[2]
  IC50: > 200000 nM
Influenza A virus [3]; [42]
  EC50: 1800 nM
[4]
  selectivity ratio: > 135
[6]
  CC50 at 48 h: > 50000 nM
HEK293T [41]
  inhibition: inactive
[7]
  Activity: inactive
